Experimental data from patent publication US20250230193A1, “CYCLIC COMPOUND HAVING SELECTIVE KRAS INHIBITORY EFFECT ON HRAS AND NRAS” (CHUGAI SEIYAKU KABUSHIKI KAISHA, priority 2022, published 2025).
*1 amine or outer side, *2 acyl side, *3 side chain or, on linkers, in order; H or OH if unused. Where a SMILES comes first, the peptide text is derived from it. Bridges are numbered along the chain shown (N, C = ends). [ ]: non-standard residue; d: D form. The star is where a group is joined. hPhe(3-Cl-4-CF3) = N[C@@H](CCc1ccc(C(F)(F)F)c(Cl)c1)C(=O)O; NPrPhe(4-CF3) = CCCN[C@@H](Cc1ccc(C(F)(F)F)cc1)C(=O)O; NEtAsp = CCN([C@@H](CC(=O)[*:3])C(=O)[*:2])[*:1]; NMeGly(cPent) = CN[C@H](C(=O)O)C1CCCC1; NMeNva = CCC[C@H](NC)C(=O)O; Morpholide = C1CN(*)CCO1; NMeA = CN[C@@H](C)C(=O)O; Aze = O=C(O)[C@@H]1CCN1; Ac4c = NC1(C(=O)O)CCC1; Sar = CNCC(=O)O

Assays:
[1] = target: GDP-bound NRAS wild-type protein (Homo sapiens, UniProt P01111); test: Binding to NRAS by surface plasmon resonance (SPR), Single Cycle Kinetics; details: for NRAS/KRAS (ratio of KD value with respect to NRAS to KD value with respect to KRAS) / NRAS/KRAS (ratio of KD value for NRAS to KD value for KRAS): GDP-bound NRAS wild-type vs GDP-bound KRAS wild-type
[2] = target: GDP-bound HRAS wild-type protein (Homo sapiens, UniProt P01112); test: Binding to HRAS by surface plasmon resonance (SPR), Single Cycle Kinetics; details: for HRAS/KRAS (ratio of KD value with respect to HRAS to KD value with respect to KRAS) / HRAS/KRAS (ratio of KD value for HRAS to KD value for KRAS): GDP-bound HRAS wild-type vs GDP-bound KRAS wild-type
GDP-bound HRAS wild-type protein, sequence (P01112 whole entry): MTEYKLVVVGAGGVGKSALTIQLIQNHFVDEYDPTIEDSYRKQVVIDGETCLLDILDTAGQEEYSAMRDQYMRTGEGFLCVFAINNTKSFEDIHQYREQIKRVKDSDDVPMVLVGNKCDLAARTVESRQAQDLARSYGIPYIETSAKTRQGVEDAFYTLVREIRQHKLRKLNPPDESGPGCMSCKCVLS

GDP-bound NRAS wild-type protein, sequence (P01111 whole entry): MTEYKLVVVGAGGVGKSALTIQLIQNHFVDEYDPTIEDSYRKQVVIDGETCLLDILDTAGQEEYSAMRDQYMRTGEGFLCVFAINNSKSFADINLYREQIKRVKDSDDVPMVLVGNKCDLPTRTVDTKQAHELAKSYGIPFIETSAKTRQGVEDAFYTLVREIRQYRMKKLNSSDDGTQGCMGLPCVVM

CC[C@H](C)[C@@H]1NC(=O)[C@H](CC(C)C)N(C)C(=O)C[C@@H](C(=O)N(C)C)N(C)C(=O)[C@H](C2CCCC2)N(C)C(=O)C2(CC(C)(C)C2)NC(=O)[C@@H]2C[C@@H](C)CN2C(=O)[C@H](CCc2cc(F)c(C(F)(F)F)c(F)c2)NC(=O)CN(C)C(=O)[C@H](Cc2ccc(C)cc2)N2CC/C=C\C[C@@H](C2=O)N(C)C(=O)CN(C)C1=O [PP2223]
NRAS/KRAS (ratio of KD value with respect to NRAS to KD value with respect to KRAS) ([1]; SPR): A (a compound having 10 or more and less than 20 is denoted as A)
HRAS/KRAS (ratio of KD value with respect to HRAS to KD value with respect to KRAS) ([2]; SPR): A (a compound having 10 or more and less than 20 is denoted as A)

CCC[C@H]1C(=O)N[C@@H]([C@@H](C)CC)C(=O)N(C)[C@@H](C)C(=O)N2CC[C@H]2C(=O)N(CCC)[C@@H](Cc2ccc(C(F)(F)F)cc2)C(=O)N(C)CC(=O)N[C@@H](CCc2ccc(C(F)(F)F)c(Cl)c2)C(=O)N2CCC[C@H]2C(=O)NC2(CCC2)C(=O)N(C)[C@@H](C2CCCC2)C(=O)N(CC)[C@H](C(=O)N2CCOCC2)CC(=O)N1C [PP1955] ([NMeNva]I[NMeA][Aze][NPrPhe(4-CF3)][Sar][hPhe(3-Cl-4-CF3)]P[Ac4c][NMeGly(cPent)][NEtAsp]-Morpholide; lactam N-11)
NRAS/KRAS (ratio of KD value for NRAS to KD value for KRAS) ([1]; KD ratio, SPR): C (A compound having a KD ratio of 0.1 or more and less than 3 is denoted as C)
HRAS/KRAS (ratio of KD value for HRAS to KD value for KRAS) ([2]; KD ratio, SPR): B (a compound having 3 or more and less than 10 is denoted as B)

CCO[C@@H]1C[C@H]2C(=O)N(C)C3(CCC3)C(=O)N(C)[C@@H](C(CC)CC)C(=O)N(C)[C@H](C(=O)N(C)C)CC(=O)N(C)[C@@H](COC)C(=O)N[C@@H]([C@@H](C)CC)C(=O)N(C3CC3)CC(=O)N(C)[C@H]3C/C=C\CCN(C3=O)[C@@H](CC3CCCCC3)C(=O)N(C)CC(=O)N[C@@H](CCc3ccc(C(F)(F)F)c(OC)c3)C(=O)N2C1 [PP2339]
NRAS/KRAS (ratio of KD value with respect to NRAS to KD value with respect to KRAS) ([1]; SPR): A (a compound having 10 or more and less than 20 is denoted as A)
HRAS/KRAS (ratio of KD value with respect to HRAS to KD value with respect to KRAS) ([2]; SPR): A (a compound having 10 or more and less than 20 is denoted as A)

CCC(CC)[C@H]1C(=O)N(C)[C@H](C(=O)N(C)C)CC(=O)N(C)[C@@H](COC)C(=O)N[C@@H]([C@@H](C)CC)C(=O)N(C)CC(=O)N(C)[C@H]2C/C=C\CCN(C2=O)[C@@H](Cc2ccc(C)cc2)C(=O)N(C)CC(=O)N[C@@H](CCc2ccc(Cl)c(Cl)c2)C(=O)N2CC3(CC3)C[C@H]2C(=O)N(C)C2(CC(C)(C)C2)C(=O)N1C [PP2820]
NRAS/KRAS (ratio of KD value with respect to GDP-bound NRAS wild-type protein to KD value with respect to KRAS) ([1]; class symbols): AA (a compound having 20 or more is denoted as AA)
HRAS/KRAS (ratio of KD value with respect to GDP-bound HRAS wild-type protein to KD value with respect to KRAS) ([2]; class symbols): A (a compound having 10 or more and less than 20 is denoted as A)

CCO[C@@H]1C[C@H]2C(=O)NC3(CCC3)C(=O)N(C)[C@@H](C(C)(C)C)C(=O)N(C)[C@H](C(=O)N3CCOCC3)CC(=O)N(C)[C@@H](CC(C)C)C(=O)N[C@@H]([C@@H](C)CC)C(=O)N(C)CC(=O)N(C)[C@H]3CCCCCN(C3=O)[C@@H](Cc3ccc(C(F)(F)F)cc3)C(=O)N(C)CC(=O)N[C@@H](CCc3cc(F)c(C(F)(F)F)c(F)c3)C(=O)N2C1 [PP0823]
NRAS/KRAS (ratio of KD value with respect to NRAS to KD value with respect to KRAS) ([1]; KD ratio, SPR): A (a compound having 10 or more and less than 20 is denoted as A)
HRAS/KRAS (ratio of KD value with respect to HRAS to KD value with respect to KRAS) ([2]; KD ratio, SPR): B (a compound having 3 or more and less than 10 is denoted as B)

CCCOC[C@H]1C(=O)N[C@@H]([C@@H](C)CC)C(=O)N(C)CC(=O)N(C)[C@H]2C/C=C\CCN(C2=O)[C@@H](Cc2ccc(C(F)(F)F)cc2)C(=O)N(C)CC(=O)N[C@@H](CCc2cc(F)c(Cl)c(F)c2)C(=O)N2C[C@H](OCC)C[C@H]2C(=O)NC2(CC(C)(C)C2)C(=O)N(C)[C@@H](C2CCCC2)C(=O)N(C)[C@H](C(=O)N(C)C)CC(=O)N1C [PP1764]
NRAS/KRAS (ratio of KD value for NRAS to KD value for KRAS) ([1]; KD ratio, SPR): AA (a compound having 20 or more is denoted as AA)
HRAS/KRAS (ratio of KD value for HRAS to KD value for KRAS) ([2]; KD ratio, SPR): A (a compound having 10 or more and less than 20 is denoted as A)

CCO[C@@H]1C[C@H]2C(=O)NC3(CC(C)(C)C3)C(=O)N(C)[C@@H](C(CC)CC)C(=O)N(C)[C@H](C(=O)N(C)C)CC(=O)N(C)[C@@H](C(C)C)C(=O)N[C@@H]([C@@H](C)CC)C(=O)N(C)CC(=O)N(C)[C@H]3C/C=C\CCN(C3=O)[C@@H](CC3CCC(F)(F)CC3)C(=O)N(C)CC(=O)N[C@@H](CCc3cc(F)c(C(F)(F)F)c(F)c3)C(=O)N2C1 [PP2481]
NRAS/KRAS (ratio of KD value with respect to NRAS to KD value with respect to KRAS) ([1]; SPR): A (a compound having 10 or more and less than 20 is denoted as A)
HRAS/KRAS (ratio of KD value with respect to HRAS to KD value with respect to KRAS) ([2]; SPR): A (a compound having 10 or more and less than 20 is denoted as A)

CCOC[C@H]1C(=O)N[C@@H]([C@@H](C)CC)C(=O)N(C)CC(=O)N(C)[C@H]2C/C=C\CCN(C2=O)[C@@H](Cc2ccc(C(F)(F)F)cc2)C(=O)N(C)CC(=O)N[C@@H](CCc2ccc(C(F)(F)F)c(OC)c2)C(=O)N2C[C@H](OCC)C[C@H]2C(=O)N(C)C2(CCC2)C(=O)N(C)[C@@H](C(CC)CC)C(=O)N(C)[C@H](C(=O)N(C)C)CC(=O)N1C [PP2383]
NRAS/KRAS (ratio of KD value with respect to NRAS to KD value with respect to KRAS) ([1]; SPR): A (a compound having 10 or more and less than 20 is denoted as A)
HRAS/KRAS (ratio of KD value with respect to HRAS to KD value with respect to KRAS) ([2]; SPR): A (a compound having 10 or more and less than 20 is denoted as A)

CC[C@H](C)[C@@H]1NC(=O)[C@H](CC)N(C)C(=O)C[C@@H](C(=O)N2CCOCC2)N(C)C(=O)[C@H](C2CCCC2)N(C)C(=O)C2(CCCC2)NC(=O)[C@@H]2CCCN2C(=O)[C@H](CCc2ccc(C(F)(F)F)c(Cl)c2)NC(=O)CN(C)C(=O)[C@H](Cc2ccc(F)cc2)N2CCCCC[C@@H](C2=O)N(C)C(=O)CN(C)C1=O [PP0959]
NRAS/KRAS (ratio of KD value with respect to NRAS to KD value with respect to KRAS) ([1]; KD ratio, SPR): B (a compound having 3 or more and less than 10 is denoted as B)
HRAS/KRAS (ratio of KD value with respect to HRAS to KD value with respect to KRAS) ([2]; KD ratio, SPR): B (a compound having 3 or more and less than 10 is denoted as B)

CC[C@H](C)[C@@H]1NC(=O)[C@H](CC(C)C)N(C)C(=O)C[C@@H](C(=O)N2CCOCC2)N(C)C(=O)[C@H](C2CCCC2)N(C)C(=O)C2(CCC2)NC(=O)[C@@H]2C[C@@H](OC)CN2C(=O)[C@H](CCc2cc(F)c(C(F)(F)F)c(F)c2)NC(=O)CN(C)C(=O)[C@H](Cc2ccc(C(F)(F)F)cc2)N2CCCCC[C@@H](C2=O)N(C)C(=O)CN(C)C1=O [PP1016]
NRAS/KRAS (ratio of KD value with respect to NRAS to KD value with respect to KRAS) ([1]; KD ratio, SPR): A (a compound having 10 or more and less than 20 is denoted as A)
HRAS/KRAS (ratio of KD value with respect to HRAS to KD value with respect to KRAS) ([2]; KD ratio, SPR): B (a compound having 3 or more and less than 10 is denoted as B)

CCO[C@@H]1C[C@H]2C(=O)NC3(CCC3)C(=O)N(C)[C@@H](C3CCCC3)C(=O)N(C)[C@H](C(=O)N3CCOCC3)CC(=O)N(C)[C@@H](Cc3cccc(F)c3)C(=O)N[C@@H]([C@@H](C)CC)C(=O)N(C)CC(=O)N(C)[C@H]3CCCCCN(C3=O)[C@@H](Cc3ccc(C(F)(F)F)cc3)C(=O)N(C)CC(=O)N[C@@H](CCc3cc(F)c(C(F)(F)F)c(F)c3)C(=O)N2C1 [PP0856]
NRAS/KRAS (ratio of KD value with respect to NRAS to KD value with respect to KRAS) ([1]; KD ratio, SPR): B (a compound having 3 or more and less than 10 is denoted as B)
HRAS/KRAS (ratio of KD value with respect to HRAS to KD value with respect to KRAS) ([2]; KD ratio, SPR): B (a compound having 3 or more and less than 10 is denoted as B)

CCO[C@@H]1C[C@H]2C(=O)NC3(CC(C)(C)C3)C(=O)N(C)[C@@H](C3CCCC3)C(=O)N(C)[C@H](C(=O)N(C)C)CC(=O)N(C)[C@@H](C)C(=O)N[C@@H]([C@@H](C)CC)C(=O)N(C)CC(=O)N(C)[C@H]3CCCCCN(C3=O)[C@@H](Cc3ccc(C(F)(F)F)cc3)C(=O)N(C)CC(=O)N[C@@H](CCc3cc(F)c(C(F)(F)F)c(F)c3)C(=O)N2C1 [PP0723]
NRAS/KRAS (ratio of KD value with respect to GDP-bound NRAS wild-type protein to KD value with respect to KRAS) ([1]; SPR): B (a compound having 3 or more and less than 10 is denoted as B)
HRAS/KRAS (ratio of KD value with respect to GDP-bound HRAS wild-type protein to KD value with respect to KRAS) ([2]; SPR): B (a compound having 3 or more and less than 10 is denoted as B)

CCO[C@@H]1C[C@H]2C(=O)NC3(CCC(F)(F)CC3)C(=O)N(C)[C@@H](C3CCCC3)C(=O)N(C)[C@H](C(=O)N3CCOCC3)CC(=O)N(C)[C@@H](CC(C)C)C(=O)N[C@@H]([C@@H](C)CC)C(=O)N(C)CC(=O)N(C)[C@H]3CCCCCN(C3=O)[C@@H](Cc3ccc(C(F)(F)F)cc3)C(=O)N(C)CC(=O)N[C@@H](CCc3cc(F)c(C(F)(F)F)c(F)c3)C(=O)N2C1 [PP0728]
NRAS/KRAS (ratio of KD value with respect to GDP-bound NRAS wild-type protein to KD value with respect to KRAS) ([1]; SPR): B (a compound having 3 or more and less than 10 is denoted as B)
HRAS/KRAS (ratio of KD value with respect to GDP-bound HRAS wild-type protein to KD value with respect to KRAS) ([2]; SPR): B (a compound having 3 or more and less than 10 is denoted as B)

CC(C)C[C@H]1C(=O)N[C@@H](C2CCC2)C(=O)N(C)CC(=O)N(C)[C@H]2CCCCCN(C2=O)[C@@H](Cc2ccc(C(F)(F)F)cc2)C(=O)N(C)CC(=O)N[C@@H](CCc2cc(F)c(C(F)(F)F)c(F)c2)C(=O)N2CCC[C@H]2C(=O)NC2(CCCC2)C(=O)N(C)[C@@H](C2CCCC2)C(=O)N(C)[C@H](C(=O)N2CCOCC2)CC(=O)N1C [PP0522]
NRAS/KRAS (ratio of KD value with respect to GDP-bound NRAS wild-type protein to KD value with respect to KRAS) ([1]; SPR): B (a compound having 3 or more and less than 10 is denoted as B)
HRAS/KRAS (ratio of KD value with respect to GDP-bound HRAS wild-type protein to KD value with respect to KRAS) ([2]; SPR): B (a compound having 3 or more and less than 10 is denoted as B)
